34 compounds from PubChem BioAssay AID2202555 (NIEHS Division of Translational Toxicology (DTT)) can be followed below.

Records with an inconclusive call do not appear. Calls of active or inactive are those of the source. The rule behind the calls is not given here.

In the first series the test system is rat and mouse 2-year carcinogenicity bioassay, tumor evidence. Description: Consolidated carcinogenicity assay summary data. The conditions noted are these: Route (rodents): Dosed feed.
For `S=C1NCCN1`, the carcinogen call is “active; clear evidence”.

In the case of `ClC1=C(Cl)[C@]2(Cl)[C@H]3[C@H]([C@@H]4C=C[C@H]3C4)[C@@]1(Cl)C2(Cl)Cl`, the carcinogen call is “active; equivocal evidence”.

As to `NC(=O)NN=Cc1ccc([N+](=O)[O-])o1`, the carcinogen call is “active; equivocal evidence”.

Regarding `COc1ccccc1[N+](=O)[O-]`, the carcinogen call is “active; clear evidence”.

For `Cc1cc(C)c(N)cc1C`, the carcinogen call is “active; clear evidence”.

For the compound `O=Nc1ccc(Nc2ccccc2)cc1`, the carcinogen call was “active; clear evidence”.

With `O=[N+]([O-])c1ccc2nc[nH]c2c1`, the carcinogen call is “active; no evidence”.

Regarding `COC(=O)[C@H]1[C@H]2C[C@@H]3c4[nH]c5cc(OC)ccc5c4CCN3C[C@H]2C[C@@H](OC(=O)c2cc(OC)c(OC)c(OC)c2)[C@@H]1OC`, the carcinogen call is “active; clear evidence”.

For the compound `CCOC(=O)C(O)(c1ccc(Cl)cc1)c1ccc(Cl)cc1`, the carcinogen call is “active; equivocal evidence”.

As to `COc1ccc(N)cc1N`, the carcinogen call was “active; clear evidence”.

As for `O=c1c(O)c(-c2ccc(O)c(O)c2)oc2cc(O)cc(O)c12`, the carcinogen call is “active; some evidence”.

As for `CCOc1ccc(NC(C)=O)cc1[N+](=O)[O-]`, the carcinogen call is “active; no evidence”.

Staying with this series, now noted: Route (rodents): Dosed water.
As to `O=C(O)C(Br)Br`, the carcinogen call was “active; some evidence”.

For `COc1cc(-c2ccc(N)c(OC)c2)ccc1N`, the carcinogen call is “active; clear evidence”.

In the case of `N#CC(Br)Br`, the carcinogen call is “active; clear evidence”.

The series is the same for the next values; noted with them: Route (rodents): Gavage.
As to `S=c1[nH]c2ccccc2s1`, the carcinogen call was “active; some evidence”.

In the case of `CCCCC1C(=O)N(c2ccccc2)N(c2ccccc2)C1=O`, the carcinogen call is “active; equivocal evidence”.

For the compound `ClC=CCCl`, the carcinogen call is “active; clear evidence”.

As for `ClCC(Cl)Cl`, the carcinogen call was “active; no evidence”.

Consider `c1ccccc1`, for which the carcinogen call was “active; clear evidence”.

`ClCC(Cl)CCl`: the carcinogen call was “active; clear evidence”.

In the case of `Clc1ccc(-c2cc(Cl)c(Cl)cc2Cl)cc1Cl`, the carcinogen call is “active”.

As to `C=CC1CC=CCC1` (centres undefined), the carcinogen call was “active; inadequate study”.

Turning to `Cc1ccc(N(C)C)cc1`, the carcinogen call is “active; clear evidence”.

For the compound `C=CCN=C=S`, the carcinogen call was “active; clear evidence”.

In the case of `C=C1C/C(=C/C)C(=O)O[C@@H]2CCN3CC=C(COC(=O)[C@@]1(O)CO)[C@H]23`, the carcinogen call was “active; clear evidence”.

The same series, now with this note: Route (rodents): Inhalation.
On to `[Co]`, for which the carcinogen call is “active; clear evidence”.

For `CC(O)COC(C)(C)C` (centres undefined), the carcinogen call was “active; equivocal evidence”.

Turning to `CCCl`, the carcinogen call is “active; equivocal evidence”.

Regarding `C1CCOC1`, the carcinogen call was “active; some evidence”.

Turning to `[O]=[Sb][O][Sb]=[O]`, the carcinogen call was “active; some evidence”.

The series is the same for the next values; noted with them: Route (rodents): Interperitoneal.
With `COc1cc2c(c3c1c(=O)c1ccccc1n3C)C=CC(C)(C)O2`, the carcinogen call is “active; clear evidence”.

In the case of `CC(COc1ccccc1)N(CCCl)Cc1ccccc1` (centres undefined), the carcinogen call is “active; clear evidence”.

In the case of `O=P1(NCCCl)OCCCN1CCCl` (centres undefined), the carcinogen call was “active; no evidence”.
